Counter-ions that a name gives are not always drawn. Like-named read-outs stand apart in the source and are kept apart here.
Legend:
[1] = target: GST-Syk Full Protein (human) (Homo sapiens, UniProt P43405); test: Syk kinase inhibition test (HTRF method); format: biochemical
In short: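 HTRF read-out: after EDTA termination and 1 h with XL665-streptavidin and Eu-anti-phosphotyrosine, the 665/620 nm ratio was measured. The reaction ran 30 min at 20–25 °C with final 6.4 nM human GST-Syk, 250 nM biotinylated peptide, 100 μM ATP, pH 7.0 HEPES buffer, 2% DMSO.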

[2] = tested on: cultured human mast cells; test: Degranulation inhibition test using cultured human mast cells (IgE cross-linking, β-Hexosaminidase release); format: cell-based; settings: Mast cell, cultured human mast cells, read-out: human degranulation ave. IC50
In short: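 Degranulation was triggered by anti-hIgE (10 μg/mL final, 30 min, 37 °C) after a 10-min compound pretreatment (DMSO 0.1%) of cord-blood CD34+-derived mast cells primed 5 days with IL-4 and IgE. β-Hexosaminidase in supernatant was measured with p-nitrophenyl-GlcNAc substrate (A405), expressed against water-lysed total; IC50 (M).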

[3] = Tables 1-x, compounds A, read-out: sykHTRF ave IC50
[4] = HTRF, 100 μM ATP, 30 min room temperature, average, read-out: sykHTRF ave IC50
[5] = anti-hIgE stimulation, β-Hexosaminidase index, average
[6] = Tables 2-x, thiophene compounds B, read-out: sykHTRK ave IC50
[7] = Tables 2-x, thiophene compounds B

Row | Structure (SMILES) | IC50 [1, 3] [nM] | IC50 ([2]; Tables 1-x, compounds A) [nM] | IC50 [1, 4] [nM] | IC50 [2, 5] [nM] | also measured
1 | Cc1ccnc(Nc2cccc(-c3cnc(N(C)[C@H]4CC[C@@H](CC(=O)O)CC4)s3)n2)c1 [Compound A-611, [cis-4-(N-methyl-N-{5-[6-(4-methylpyridin-2-ylamino)pyridin-2-yl]thiazol-2-yl}amino)cyclohexyl]acetic acid] | < 100 | 100 to 1000 |  |  | 
2 | Cc1ccnc(Nc2cccc(-c3cnc(CC(C)(C)CC(=O)O)s3)n2)c1 [Compound A-157] |  |  | 100 to 1000 | > 1000 | 
3 | Cc1ccnc(Nc2cccc(-c3cnc(N(C)Cc4nc(C(=O)O)cs4)s3)n2)c1 [Compound A-609, 2-[(N-methyl-N-{5-[6-(4-methylpyridin-2-ylamino)pyridin-2-yl]thiazol-2-yl}amino)methyl]thiazole-4-carboxylic acid] | < 100 | > 1000 |  |  | 
4 | Cc1ccnc(Nc2cccc(-c3cnc(CN4CCN(C(=O)CO)CC4)s3)n2)c1 [Compound A-246] |  |  | 100 to 1000 | 100 to 1000 | 
5 | Cc1ccnc(Nc2cccc(-c3cnc(C4CCN(C(N)=O)CC4)s3)n2)c1 [Compound A-182, 4-{5-[6-(4-methylpyridin-2-ylamino)pyridin-2-yl]thiazol-2-yl}piperidine-1-carboxamide] |  |  | < 100 | 100 to 1000 | 
6 | Cc1ccnc(Nc2cccc(-c3cnc([C@@H]4CCC(=O)O4)s3)n2)c1 [Compound A-33, (S)-5-{5-[6-(4-methylpyridin-2-ylamino)pyridin-2-yl]thiazol-2-yl}dihydrofuran-2-one] |  |  | < 100 | 100 to 1000 | 
7 | Cc1ccnc(Nc2cccc(-c3cnc([C@H]4CC[C@H](C(=O)N5CCNCC5)CC4)s3)n2)c1 [Compound A-176, (trans-4-{5-[6-(4-methylpyridin-2-ylamino)pyridin-2-yl]thiazol-2-yl}cyclohexyl)-(piperazin-1-yl)methanone] |  |  | < 100 | > 1000 | 
8 | Cc1ccnc(Nc2cccc(-c3cnc(N(C)C4CCC(C(N)=O)CC4)s3)n2)c1 (stereo not drawn) [Compound A-446, 4-(N-methyl-N-{5-[6-(4-methylpyridin-2-ylamino)pyridin-2-yl]thiazol-2-yl}amino)cyclohexanecarboxamide] | < 100 | 100 to 1000 |  |  | 
9 | Cc1ccnc(Nc2cccc(-c3cnc(N(C)C4CCOCC4)s3)n2)c1 [Compound A-470, N-methyl-N-{5-[6-(4-methylpyridin-2-ylamino)pyridin-2-yl]thiazol-2-yl}-N-tetrahydropyran-4-ylamine] | < 100 | 100 to 1000 |  |  | 
10 | C[C@H](N)c1ncc(-c2cccc(Nc3cc(-c4ccncc4)ccn3)n2)s1 [Compound A-75, N-{6-[2-((S)-1-aminoethyl)thiazol-5-yl]pyridin-2-yl}-N-([4,4′]bipyridinyl-2-yl)amine] |  |  | < 100 | 100 to 1000 | 
11 | Cc1ccnc(Nc2cccc(-c3cnc(CN4CCC(C(=O)O)CC4)s3)n2)c1 [Compound A-168] |  |  | 100 to 1000 | > 1000 | 
12 | Cc1ccnc(Nc2cccc(-c3cnc(CCCCC(=O)NS(C)(=O)=O)s3)n2)c1 [Compound A-171] |  |  | 100 to 1000 | > 1000 | 
13 | Cc1ccnc(Nc2cccc(-c3cnc(N(C)C4CCC(C(=O)O)CC4)s3)n2)c1 (stereo not drawn) [Compound A-444, 4-(methyl-{5-[6-(4-methylpyridin-2-ylamino)pyridin-2-yl]thiazol-2-yl}amino)cyclohexanecarboxylic acid] | < 100 | 100 to 1000 |  |  | 
14 | Cc1ccnc(Nc2cccc(-c3cnc(N4CCC(C)(C(N)=O)CC4)s3)n2)c1 [Compound A-500, 4-methyl-1-{5-[6-(4-methylpyridin-2-ylamino)pyridin-2-yl]thiazol-2-yl}piperidine-4-carboxamide] | < 100 | 100 to 1000 |  |  | 
15 | Cc1ccnc(Nc2cccc(-c3cccs3)n2)c1 [Compound B-27] |  |  |  |  | IC50 [1, 6]: 100 to 1000 nM; IC50 [2, 7]: > 1000 nM
16 | CC1(c2ccnc(Nc3cccc(-c4cnc(N5CCC[C@@H](C(=O)O)C5)s4)n3)c2)OCCO1 [Compound A-558, (R)-1-{5-(6-[4-(2-methyl-[1,3]dioxolan-2-yl)pyridin-2-ylamino]pyridin-2-yl}thiazol-2-yl)piperidine-3-carboxylic acid] | < 100 | > 1000 |  |  | 
17 | Cc1ccnc(Nc2cccc(-c3cnc(N(C)CCO)s3)n2)c1 [Compound A-519, 2-(N-methyl-N-{5-[6-(4-methylpyridin-2-ylamino)pyridin-2-yl]thiazol-2-yl}amino)ethanol] | < 100 | < 100 |  |  | 
18 | Cc1ccnc(Nc2cccc(-c3cnc(CCC4CCN(C(=O)C5CCC(=O)CC5)CC4)s3)n2)c1 [Compound A-293] |  |  | 100 to 1000 | > 1000 | 
19 | Cc1ccnc(Nc2cccc(-c3cnc(N4CCN(CC(=O)O)CC4)s3)n2)c1 [Compound A-589, (4-{5-[6-(4-methylpyridin-2-ylamino)pyridin-2-yl]thiazol-2-yl}piperazin-1-yl)acetic acid dihydrochloride] | < 100 | > 1000 |  |  | 
20 | CC(=O)O[C@@H]1C[C@@H](c2ncc(-c3cccc(Nc4cc(C)ccn4)n3)s2)N(C(C)=O)C1 [Compound A-93] |  |  | 100 to 1000 | > 1000 | 

Row | Structure (SMILES) | IC50 [1, 3] [nM] | IC50 ([2]; Tables 1-x, compounds A) [nM] | IC50 [1, 4] [nM] | IC50 [2, 5] [nM] | also measured
21 | Cc1ccnc(Nc2cccc(-c3cnc(N4CCC(O)CC4)s3)n2)c1 [Compound A-433, 1-{5-[6-(4-methylpyridin-2-ylamino)pyridin-2-yl]thiazol-2-yl}piperidin-4-ol] | < 100 | < 100 |  |  | 
22 | CNC(=O)CO[C@@H]1CCN(c2ncc(-c3cccc(Nc4cc(C)ccn4)n3)s2)C1 [Compound A-516, N-methyl-2-((R)-1-{5-[6-(4-methylpyridin-2-ylamino)pyridin-2-yl]thiazol-2-yl}pyrrolidin-3-yloxy)acetamide] | < 100 | 100 to 1000 |  |  | 
23 | COC(=O)N1CCC(c2ncc(-c3cccc(Nc4cc(C)ccn4)n3)s2)CC1 [Compound A-170] |  |  | 100 to 1000 | 100 to 1000 | 
24 | Cc1ccnc(Nc2cccc(-c3cnc(CNC(=O)NCCO)s3)n2)c1 [Compound A-253] |  |  | 100 to 1000 | 100 to 1000 | 
25 | CCOC(=O)c1nc([C@H](C)N)sc1-c1cccc(Nc2cc(C)ccn2)n1 [Compound A-101] |  |  | > 1000 | > 1000 | 
26 | COC(=O)c1ccnc(Nc2cccc(-c3ccc(C(C)=O)s3)n2)c1 [Compound B-53, 2-[6-(5-acetylthiophen-2-yl)pyridin-2-ylamino]isonicotinic acid methyl ester] |  |  |  |  | IC50 [1, 6]: < 100 nM; IC50 [2, 7]: > 1000 nM
27 | Cc1ccnc(Nc2cccc(-c3cnc([C@@H](N)CO)s3)n2)c1 [Compound A-13, (S)-2-amino-2-{5-[6-(4-methylpyridin-2-ylamino)pyridin-2-yl]thiazol-2-yl}ethanol] |  |  | 100 to 1000 | 100 to 1000 | 
28 | Cc1ccnc(Nc2cccc(-c3cnc(CCC4CCNCC4)s3)n2)c1 [Compound A-258, N-(4-methylpyridin-2-yl)-N-{6-[2-(2-piperidin-4-ylethyl)thiazol-5-yl]pyridin-2-yl}amine] |  |  | < 100 | > 1000 | 
29 | Cc1ccnc(Nc2cccc(-c3cnc(C4CCC(CC(=O)O)CC4)s3)n2)c1 (stereo not drawn) [Compound A-595, (4-{5-[6-(4-methylpyridin-2-ylamino)pyridin-2-yl]thiazol-2-yl}cyclohexyl)acetic acid hydrochloride] | < 100 | 100 to 1000 |  |  | 
30 | Cc1ccnc(Nc2cccc(-c3cnc(CNC(=O)NCC(=O)O)s3)n2)c1 [Compound A-254] |  |  | 100 to 1000 | > 1000 | 
31 | COCCO/N=C(\C)c1ccc(-c2cccc(Nc3cc(C)ccn3)n2)s1 [Compound B-46] |  |  |  |  | IC50 [1, 6]: 100 to 1000 nM; IC50 [2, 7]: > 1000 nM
32 | CC(=O)Nc1nc([C@H](C)NC(C)=O)sc1-c1cccc(Nc2cc(C)ccn2)n1 [Compound A-119] |  |  | > 1000 | > 1000 | 
33 | CNC(=O)C1CCCN(c2ncc(-c3cccc(Nc4cc(C)ccn4)n3)s2)C1 (stereo not drawn) [Compound A-477, N-methyl-1-{5-[6-(4-methylpyridin-2-ylamino)pyridin-2-yl]thiazol-2-yl}piperidine-3-carboxamide] | < 100 | 100 to 1000 |  |  | 
34 | O=C(O)CC1CCN(c2ncc(-c3cccc(Nc4cc(Cl)ccn4)n3)s2)CC1 [Compound A-620, (1-{5-[6-(4-chloropyridin-2-ylamino)pyridin-2-yl]thiazol-2-yl}piperidin-4-yl)acetic acid dihydrochloride] | < 100 | 100 to 1000 |  |  | 
35 | Cc1ccnc(Nc2cccc(-c3cnc(N4CCN(C(=O)N(C)C)CC4)s3)n2)c1 [Compound A-441, N,N-dimethyl-4-{5-[6-(4-methylpyridin-2-ylamino)pyridin-2-yl]thiazol-2-yl}piperazine-1-carboxamide] | < 100 | 100 to 1000 |  |  | 
36 | O=C([C@H]1CC[C@H](c2ncc(-c3cccc(Nc4cc5ccccc5cn4)n3)s2)CC1)N1CCC(O)CC1 [Compound A-307] |  |  | 100 to 1000 | 100 to 1000 | 
37 | CC(=O)c1ccc(-c2cccc(Nc3cc(C(=O)O)ccn3)n2)s1 [Compound B-58] |  |  |  |  | IC50 [1, 6]: > 1000 nM; IC50 [2, 7]: > 1000 nM
38 | CC(=O)O[C@@H](C)c1ncc(-c2cccc(Nc3cc(C)ccn3)n2)s1 [Compound A-25, acetic acid(S)-1-{5-[6-(4-methylpyridin-2-ylamino)pyridin-2-yl]thiazol-2-yl}ethyl ester] |  |  | < 100 | 100 to 1000 | 
39 | Cc1ccnc(Nc2cccc(-c3cnc(CCC4CCC(O)CC4)s3)n2)c1 (stereo not drawn) [Compound A-173, 4-(2-{5-[6-(4-methylpyridin-2-ylamino)pyridin-2-yl]thiazol-2-yl}ethyl)cyclohexanol] |  |  | < 100 | 100 to 1000 | 
